Experimental data taken from paper PMC2597681 (Biochemistry, 2008).
Read-outs that look alike come from different tables or passages of the source.

Tests used:
[1] = molecular target: T1, bovine heart mitochondrial complex I (NADH-ubiquinone oxidoreductase) (Bos taurus, UniProt P03887+P17694); assay: NADH oxidase activity in SMP; format: biochemical
[2] = molecular target: T2, ND1 subunit (Bos taurus, UniProt P03887+P17694); assay: Suppression of specific photoaffinity labeling of the ND1 subunit by [125I]TDA; format: binding, bovine; conditions: [125I]TDA 3 nM; SMP 0.3 mg of protein/mL
[3] = tested on: 49 kDa subunit and an unidentified subunit of complex I; assay: Suppression of specific binding of [125I]AFP to SMP; parameters: species or system bovine; conditions: [125I]AFP 6 nM; competitor 60, 600 or 6,000 nM; SMP 1.0 mg of protein/mL
[4] = molecular target: T1, bovine heart mitochondrial complex I (NADH-ubiquinone oxidoreductase); conditions: ref [27]; cited from earlier work
[5] = molecular target: bovine heart mitochondrial complex I (ubiquinol-NAD+ oxidoreductase activity) (Bos taurus, UniProt P03887+P17694); conditions: ref [27]; cited from earlier work
[6] = molecular target: T2, ND1 subunit; conditions: ref [19]; cited from earlier work

T1 sequence (P17694 34-463): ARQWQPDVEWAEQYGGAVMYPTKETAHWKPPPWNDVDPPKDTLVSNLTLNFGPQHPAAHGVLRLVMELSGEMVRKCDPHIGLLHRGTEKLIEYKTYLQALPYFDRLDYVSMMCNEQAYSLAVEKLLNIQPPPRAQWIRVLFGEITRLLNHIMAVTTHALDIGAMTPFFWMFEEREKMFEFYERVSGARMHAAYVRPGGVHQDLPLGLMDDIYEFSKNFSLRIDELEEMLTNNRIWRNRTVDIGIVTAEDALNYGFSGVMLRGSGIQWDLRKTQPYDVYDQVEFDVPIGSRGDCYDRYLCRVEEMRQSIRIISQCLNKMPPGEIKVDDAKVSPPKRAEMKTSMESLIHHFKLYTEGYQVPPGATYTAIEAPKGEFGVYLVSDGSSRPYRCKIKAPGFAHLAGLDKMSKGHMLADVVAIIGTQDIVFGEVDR
T1 sequence (P03887 whole entry): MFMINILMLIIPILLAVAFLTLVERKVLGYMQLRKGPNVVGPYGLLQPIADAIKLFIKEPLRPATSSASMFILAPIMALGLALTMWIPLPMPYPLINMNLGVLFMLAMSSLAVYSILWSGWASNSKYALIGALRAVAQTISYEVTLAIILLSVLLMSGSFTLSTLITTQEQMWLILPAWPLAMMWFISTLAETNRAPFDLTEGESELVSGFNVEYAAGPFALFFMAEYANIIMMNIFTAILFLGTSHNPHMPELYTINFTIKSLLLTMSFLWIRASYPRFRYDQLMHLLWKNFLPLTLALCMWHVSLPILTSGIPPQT
T1 sequence (P42026 38-216 partner): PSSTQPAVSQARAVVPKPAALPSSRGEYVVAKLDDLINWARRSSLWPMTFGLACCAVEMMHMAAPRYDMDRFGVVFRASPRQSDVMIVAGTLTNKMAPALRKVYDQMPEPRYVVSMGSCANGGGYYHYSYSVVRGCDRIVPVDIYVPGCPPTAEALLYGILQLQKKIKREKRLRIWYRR
Chain of bovine heart mitochondrial complex I (ubiquinol-NAD+ oxidoreductase activity) (P17694 34-463): as the sequence (P17694 34-463) above
Chain of bovine heart mitochondrial complex I (ubiquinol-NAD+ oxidoreductase activity) (P03887 whole entry): as the sequence (P03887 whole entry) above
Chain of bovine heart mitochondrial complex I (ubiquinol-NAD+ oxidoreductase activity) (P42026 38-216 partner): as the sequence (P42026 38-216 partner) above
T2 sequence (P03887 whole entry): as the sequence (P03887 whole entry) above
T2 sequence (P17694 34-463): as the sequence (P17694 34-463) above
T2 sequence (P42026 38-216 partner): as the sequence (P42026 38-216 partner) above

SMILES | IC50 [1] [nM] | Suppression of specific binding of [125I]TDA to ND1 (in words) [2] | Suppression of specific labeling of the two subunits by [125I]AFP (in words) [3] | IC50 values, Forward electron transfer [4] | IC50 (R)/IC50 (F), ratio of IC50 (reverse)/IC50 (forward) [5] | IC50 values, Reverse electron transfer [5] | Suppression of specific binding of [125I]TDA to ND1 (in words) [6]
CCCCCCCCCCC(O)C1CCC(C2CCC(C(O)CCCCCCCCCCC(O)CC3=CC(C)OC3=O)O2)O1 (stereo not drawn) [Bullatacin, bullatacin] | 0.85 | suppressed the specific binding more efficiently than the piperazines | suppressed the radiolabeling | 46 ± 5.2 pmol inhibitor/mg of protein | 0.61 | 28 ± 4.4 pmol inhibitor/mg of protein | 
Cc1nn(C)c(Oc2ccccc2)c1C=NOCc1ccc(C(=O)OC(C)(C)C)cc1 [fenpyroximate] |  |  | suppressed the radiolabeling |  |  |  | completely suppress
C/C=C(\C)[C@H](O)[C@H](C)/C=C(C)/C=C/C/C(C)=C/Cc1nc(OC)c(OC)c(O)c1C [piericidin A] |  |  |  | 81 ± 7.1 pmol inhibitor/mg of protein | 0.59 | 48 ± 4.3 pmol inhibitor/mg of protein | completely suppress
CC(C)(C)c1ccc(CSc2cnn(C(C)(C)C)c(=O)c2Cl)cc1 [pyridaben] |  |  | suppressed the radiolabeling |  |  |  | completely suppress
C=C(C)[C@H]1Cc2c(ccc3c2O[C@@H]2COc4cc(OC)c(OC)cc4[C@@H]2C3=O)O1 [rotenone] |  |  | suppressed the radiolabeling |  |  |  | 
